Columns and labels:
EGFR kinase = target: T1, EGFR kinase (Homo sapiens, UniProt P00533); assay: In vitro EGFR kinase assay (ADP-Glo Kinase Assay Kit, EGFR Kinase Enzyme System); type: biochemical
T1 construct: purchased Promega
Description: In vitro kinase inhibitory ability was determined using the ADP-Glo™ Kinase Assay Kit and EGFR Kinase Enzyme System (Promega), following the manufacturer's instructions.

NCI-H1975 cells [1] = assay: Cytotoxicity / cell proliferation (MTT assay) in NCI-H1975 cells; type: cell-based; conditions: for IC50: Homo sapiens, NCI-H1975
Description: (§1) Cell proliferation was determined using MTT assay. Cell viability was estimated by trypan blue dye exclusion. Externalization of phosphatidylserine was tested using an Annexin V/PI Apoptosis Detection kit (BD Biosciences, San Jose, CA) according to manufacturer's instruction.

NCI-H1975 cells [2] = assay: Combination of V1801 and bortezomib in NCI-H1975 cells (MTT, combination index); type: cell-based; conditions: 24 h
Description: as §1, with “instruction. After staining with Hoechst 33258 at 10 µg/ml for 10 min, cell death was assessed by a fluorescence microscope (Leica).” for “instruction.”
The interaction between compounds was quantified by determining the combination index (CI) calculated by the Chou–Talalay equation [29], [30]. The general equation for the classic isobologram is given by: CI = (D)1/(Dx)1+(D)2/(Dx)2. Where Dx indicates the dose of one compound alone required to produce an effect, (D)1 and (D)2 are the doses of compounds 1 and 2, respectively, necessary to produce the same effect in combination. From this analysis, the combined effects of the two compounds can be summarized as follows: CI<1 indicates synergism; CI = 1 indicates additive effect; and CI>1 indicates antagonism.

A549 cells [3] = assay: Apoptosis by Annexin V/PI staining and flow cytometry in A549 cells; type: cell-based; conditions: 24 h
Description: as §1, with “instruction. After staining with Hoechst 33258 at 10 µg/ml for 10 min, cell death was assessed by a fluorescence microscope (Leica).” for “instruction.”

[4] = system: phosphorylated EGFR (p-EGFR); assay: Western blot of phosphorylated EGFR in NCI-H1975 cells; type: cell-based; conditions: 12 h
Description: (§2) Cells were suspended in lysis buffer (50 mM Tris-HCl (pH 7.4), 150 mM NaCl, 1% triton X-100, 1% sodium deoxycholate, 0.1% SDS, 1 mM Na3VO4, 1 mM NaF, 1 mM EDTA, 1 mM PMSF, complete protease inhibitor cocktail) and cleared by centrifugation to obtain whole-cell lysates. Equal amounts of samples were separated by SDS-PAGE, transferred to nitrocellulose and immunoblotted with antibody indicated.

NCI-H1975 cells [5] = assay: Soft-agar colony formation (clonogenic) assay; type: cell-based; conditions: 3 µM for 12 h, colonies after 2 weeks; compared to gefitinib or vehicle control
Description: To this end, trypsinized cells were suspended in RPMI 1640 medium containing 10% FBS and low-melting-point 0.3% agarose (Amresco, Solon, OH) and subsequently overlaid onto a solidified layer of RPMI 1640 medium containing 10% FBS and 0.6% agarose in 35 mm plate (5,000 cells/plate) in triplicate. After 2 weeks, the colonies were fixed in 90% ethanol and stained with 0.005% crystal violet (Sigma). The colony forming units with more than 100 cells were counted using a light microscope.

A549 cells [6] = assay: Cell proliferation (MTT assay) in A549 cells; type: cell-based; conditions: wild type EGFR-expressing A549, MTT assay, 48 h, dose-dependent
Description: as §1, with “instruction. After staining with Hoechst 33258 at 10 µg/ml for 10 min, cell death was assessed by a fluorescence microscope (Leica).” for “instruction.”

[7] = system: phosphorylated EGFR (p-EGFR); assay: Western blot of phosphorylated EGFR in HCC827 cells; type: cell-based; conditions: gefitinib-sensitive HCC827 cells, 12 h
Description: as §2

NCI-H1975 cells [8] = assay: NCI-H1975 xenograft model in nude mice; type: in vivo; conditions: 30 mg/kg/day oral, 3 weeks; for tumor growth: nude mice with subcutaneous NCI-H1975 tumors
Description: All animal studies were conducted according to protocols approved by the Animal Ethics Committee of the Institute of Zoology, Chinese Academy of Sciences, with the approval ID of AEC2011030205. All mice used in this study were bred and maintained in a specific pathogen-free environment. NCI-H1975 cells (2.5×10^6) were injected subcutaneously into the right flank of nude mice. […]. Animals were sacrificed when tumors reached 2 cm or if the mice appeared moribund to prevent unnecessary morbidity to the mice. At the time of the animals' death, tumors were excised; cells were separated and lyzed for Western blotting using anti-Noxa antibody and anti-Actin antibodies. Noxa expression was then quantified by densitometry analysis and normalized against Actin expression.
We tested the in vivo anti-tumor efficacy of V1801. […]. Animals were euthanized when they were treated for 3 weeks and the tumor samples were isolated and imaged (Fig. 6c). Proteins were extracted from tumor samples and Western blot assay was conducted. […]

NCI-H1975 cells [9] = assay: Apoptosis by Annexin V/PI staining and flow cytometry in NCI-H1975 cells; type: cell-based; conditions: 24 h
Description: as §1, with “instruction. After staining with Hoechst 33258 at 10 µg/ml for 10 min, cell death was assessed by a fluorescence microscope (Leica).” for “instruction.”

Noxa = Noxa protein expression by Western blot in NCI-H1975 cells; type: cell-based; conditions: 3 to 4 µM for 24 h
Description: as §2

[10] = L858R/T790M-EGFR harboring NSCLC cells

T1 sequence (P00533 25-1210): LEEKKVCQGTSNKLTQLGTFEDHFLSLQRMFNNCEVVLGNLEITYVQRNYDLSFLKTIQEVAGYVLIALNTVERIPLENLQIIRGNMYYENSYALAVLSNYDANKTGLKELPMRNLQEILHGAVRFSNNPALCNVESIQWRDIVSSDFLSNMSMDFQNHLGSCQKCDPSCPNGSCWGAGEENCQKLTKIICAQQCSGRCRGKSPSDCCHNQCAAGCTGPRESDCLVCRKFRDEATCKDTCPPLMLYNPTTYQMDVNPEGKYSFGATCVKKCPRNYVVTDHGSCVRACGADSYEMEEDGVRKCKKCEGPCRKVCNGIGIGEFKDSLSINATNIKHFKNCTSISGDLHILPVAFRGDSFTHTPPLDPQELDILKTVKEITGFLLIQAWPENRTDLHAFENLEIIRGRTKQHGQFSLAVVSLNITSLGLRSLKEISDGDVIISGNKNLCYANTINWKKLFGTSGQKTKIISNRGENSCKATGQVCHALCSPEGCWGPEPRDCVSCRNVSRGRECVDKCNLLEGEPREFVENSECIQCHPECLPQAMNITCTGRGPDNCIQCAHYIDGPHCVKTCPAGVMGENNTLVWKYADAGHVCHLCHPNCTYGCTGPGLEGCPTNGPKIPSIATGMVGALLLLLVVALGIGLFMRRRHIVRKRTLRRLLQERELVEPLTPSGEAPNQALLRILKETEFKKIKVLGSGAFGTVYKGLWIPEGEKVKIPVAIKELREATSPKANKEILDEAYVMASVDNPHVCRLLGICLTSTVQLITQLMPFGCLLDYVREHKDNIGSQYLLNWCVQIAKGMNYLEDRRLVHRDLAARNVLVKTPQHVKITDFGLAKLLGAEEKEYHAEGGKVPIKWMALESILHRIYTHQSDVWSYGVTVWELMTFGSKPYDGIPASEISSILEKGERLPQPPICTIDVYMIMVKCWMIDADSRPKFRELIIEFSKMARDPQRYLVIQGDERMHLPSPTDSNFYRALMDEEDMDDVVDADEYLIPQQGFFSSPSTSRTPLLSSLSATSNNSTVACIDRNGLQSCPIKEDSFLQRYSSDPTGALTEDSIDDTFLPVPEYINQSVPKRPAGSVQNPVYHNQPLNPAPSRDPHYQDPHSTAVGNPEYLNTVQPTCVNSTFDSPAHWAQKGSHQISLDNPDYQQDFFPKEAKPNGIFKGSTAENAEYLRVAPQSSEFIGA

COc1cc2c(Nc3cc(C(F)(F)F)ccc3Cl)ncnc2cc1OCCN1CCCCC1 [V1306]
IC50 (EGFR kinase): > 10 µM

COc1cc2c(Nc3ccc(Br)c(C(F)(F)F)c3)ncnc2cc1OCCCN1CCCCC1 [V1802]
IC50 (NCI-H1975 cells [1]; [10]): 7.8 µM
IC50 (EGFR kinase): 0.623 µM

CC(C)C[C@H](NC(=O)[C@H](Cc1ccccc1)NC(=O)c1cnccn1)B(O)O [bortezomib, reference compound]
enhancement of V1801-caused inhibition of cell proliferation (NCI-H1975 cells [2]; bortezomib 10 to 15 nM with V1801 2 µM, MTT): significantly enhanced

COc1cc2c(Nc3cc(C(F)(F)F)ccc3Cl)ncnc2cc1OCCCN1CCOCC1 [V1305]
IC50 (EGFR kinase): > 10 µM

COc1cc2c(Nc3cc(C(F)(F)F)ccc3Br)ncnc2cc1OCCCN1CCCCC1 [V1801, N-(2-bromo-5-(trifluoromethyl)phenyl)-6-methoxy-7-(3-(piperidin-1-yl)propoxy)quinazolin-4-amine]
induction of apoptosis (A549 cells [3]): induced apoptosis
down-regulation of phosphorylated EGFR (p-EGFR) [4]: failed to down-regulate
clonogenic activity of NCI-H1975 cells (NCI-H1975 cells [5]): drastically inhibited
IC50 (NCI-H1975 cells [1]; [10]): 3 µM
inhibition of proliferation of NCI-H1975 cells (NCI-H1975 cells [1]; MTT assay, 48 h, dose-dependent): significant inhibitory effects
inhibition of proliferation of A549 cells (A549 cells [6]): significant inhibitory effects
de-phosphorylation of p-EGFR [7]: not
IC50 (EGFR kinase): 0.702 µM
tumor growth (NCI-H1975 cells [8]): significantly inhibited tumor growth
Noxa expression in tumor samples (NCI-H1975 cells [8]; Western blot, compared with vehicle or gefitinib control mice): up-regulated
induction of apoptosis (NCI-H1975 cells [9]): induced apoptosis
Noxa protein level (Noxa): markedly up-regulated
combination index (CI) (NCI-H1975 cells [2]; V1801 (2 µM) combined with bortezomib 10 to 15 nM, CI<1 indicates synergism): less than 1

COc1cc2c(Nc3cc(C(F)(F)F)ccc3Cl)ncnc2cc1OCCCN=[N+]=[N-] [V1301]
IC50 (NCI-H1975 cells [1]; [10]): > 10 µM
IC50 (EGFR kinase): > 10 µM

CCCCCCc1cn(CCCOc2cc3ncnc(Nc4cc(C(F)(F)F)ccc4Cl)c3cc2OC)nn1 [V1302]
IC50 (NCI-H1975 cells [1]; [10]): > 10 µM
IC50 (EGFR kinase): > 10 µM

COc1cc2c(Nc3cc(C(F)(F)F)ccc3Cl)ncnc2cc1OCCCN1CCCCC1 [V1808]
IC50 (NCI-H1975 cells [1]; [10]): 18.2 µM
IC50 (EGFR kinase): 2.67 µM

C=CCOc1cc2ncnc(Nc3cc(C(F)(F)F)ccc3Cl)c2cc1OC [V1304]
IC50 (EGFR kinase): > 10 µM

COc1cc2c(Nc3ccc4c(C(F)(F)F)cc(=O)oc4c3)ncnc2cc1OCCCN1CCCCC1 [V1803]
IC50 NCI-H1975 cells (NCI-H1975 cells [1]; [10]): Insoluble

COc1cc2ncnc(Nc3ccc(F)c(Cl)c3)c2cc1OCCCN1CCOCC1 [Gefitinib, N-(3-chloro-4-fluoro-phenyl)-7-methoxy-6-(3-morpholin-4-ylpropoxy) quinazolin-4-amine, reference compound]
tumor growth (NCI-H1975 cells [8]): does not show therapeutic benefit
Noxa protein level (Noxa): failed to up-regulate

COc1cc2c(Nc3cc(C(F)(F)F)cc(C(F)(F)F)c3)ncnc2cc1OCCCN1CCCCC1 [V1807]
IC50 (NCI-H1975 cells [1]; [10]): 7.5 µM
IC50 (EGFR kinase): > 10 µM

COc1cc2c(Nc3cc(C(F)(F)F)ccc3Cl)ncnc2cc1OCCCC1CCCCC1 [V1806]
IC50 (NCI-H1975 cells [1]; [10]): > 10 µM
IC50 (EGFR kinase): > 10 µM

COc1cc2c(Nc3cc(C(F)(F)F)ccc3Cl)ncnc2cc1OCCCn1cnnn1 [V1303]
IC50 (NCI-H1975 cells [1]; [10]): > 10 µM
IC50 (EGFR kinase): > 10 µM

COc1cc2c(Nc3cc(C(F)(F)F)ccc3F)ncnc2cc1OCCCN1CCCCC1 [V1805]
IC50 (NCI-H1975 cells [1]; [10]): > 10 µM
IC50 (EGFR kinase): 0.12 µM

COc1cc2c(Nc3ccc4nc(C(F)(F)F)[nH]c4c3)ncnc2cc1OCCCN1CCCCC1 [V1804]
IC50 (NCI-H1975 cells [1]; [10]): > 10 µM
IC50 (EGFR kinase): 2 µM

— publication PMC3504066 (PLoS ONE, 2012)
